Laboratory results: patent US9085576B2 (AMGEN INC., priority 2013, dated 2015)
pIC50: −log10 of the molar value.

Key:
[1] = target: Beta Secretase enzyme (BACE) (Homo sapiens (Human), UniProt P56817); experiment: In vitro enzymatic BACE FRET assay; assay type: biochemical; conditions: read-out: BACE1 Enzyme assay IC50
[2] = target: Cathepsin D (Cat D) (Homo sapiens (Human), UniProt P07339); experiment: In vitro enzymatic Cathepsin D (Cat D) FRET assay; assay type: biochemical; conditions: read-out: CatD IC50
Sequence of Cathepsin D (Cat D) (P07339 65-412, species assumed): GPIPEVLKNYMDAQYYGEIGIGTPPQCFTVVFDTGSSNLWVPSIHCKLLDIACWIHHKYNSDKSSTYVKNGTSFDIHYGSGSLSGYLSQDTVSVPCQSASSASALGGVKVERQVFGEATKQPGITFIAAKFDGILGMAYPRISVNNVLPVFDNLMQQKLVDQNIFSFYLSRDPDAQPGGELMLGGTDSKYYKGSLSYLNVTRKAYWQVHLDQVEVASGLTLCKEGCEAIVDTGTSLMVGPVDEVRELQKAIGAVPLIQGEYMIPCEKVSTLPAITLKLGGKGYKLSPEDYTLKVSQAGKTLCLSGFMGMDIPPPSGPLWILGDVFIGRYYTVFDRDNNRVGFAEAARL

Sequence of Beta Secretase enzyme (BACE) (P56817 46-501): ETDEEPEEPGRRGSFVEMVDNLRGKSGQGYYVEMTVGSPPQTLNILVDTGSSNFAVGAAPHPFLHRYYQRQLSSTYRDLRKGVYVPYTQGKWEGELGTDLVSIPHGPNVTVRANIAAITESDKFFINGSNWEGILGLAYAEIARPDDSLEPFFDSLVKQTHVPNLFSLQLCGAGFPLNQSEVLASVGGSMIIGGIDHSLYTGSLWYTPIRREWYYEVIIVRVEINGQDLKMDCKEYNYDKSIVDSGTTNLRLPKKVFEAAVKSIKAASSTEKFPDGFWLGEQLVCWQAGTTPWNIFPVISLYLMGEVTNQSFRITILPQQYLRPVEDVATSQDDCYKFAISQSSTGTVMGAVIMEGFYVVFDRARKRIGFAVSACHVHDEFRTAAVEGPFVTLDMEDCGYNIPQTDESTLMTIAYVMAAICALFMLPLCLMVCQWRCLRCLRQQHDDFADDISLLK

Compound | pIC50 [1] | pIC50 [2]
C#CCOc1cnc(C(=O)Nc2ccc(Cl)c([C@]3(C(F)F)N=C(N)O[C@H]4C[C@H]43)c2)cn1 [Example 222, N-(3-((1S,5R,6S)-3-amino-5-(difluoromethyl)-2-oxa-4-azabicyclo[4.1.0]hept-3-en-5-yl)-4-chlorophenyl)-5-(prop-2-yn-1-yloxy)pyrazine-2-carboxamide] | 6.15 | 3.31
NC1=N[C@](c2cc(NC(=O)c3nn(C(F)F)cc3Cl)ccc2Cl)(C(F)F)[C@@H]2C[C@@H]2O1 [Example 225, N-(3-((1S,5R,6S)-3-amino-5-(difluoromethyl)-2-oxa-4-azabicyclo[4.1.0]hept-3-en-5-yl)-4-chlorophenyl)-4-chloro-1-(difluoromethyl)-1H-pyrazole-3-carboxamide] | 5.08 | 2.87
NC1=N[C@@](c2cccc(NC(=O)c3ccc(Cl)cn3)c2)(C(F)F)[C@H]2C[C@H]2O1 [Example 263, N-(3-([(1R,S),(5S,R),(6R,S)]-3-amino-5-(difluoromethyl)-2-oxa-4-azabicyclo[4.1.0]hept-3-en-5-yl)phenyl)-5-chloropicolinamide] | 6.28 | 2.97
NC1=N[C@@](c2cccc(NC(=O)c3ccc(Cl)cn3)c2)(C(F)F)[C@H]2C[C@H]2O1 [Example 265, N-(3-((1R,5S,6R)-3-amino-5-(difluoromethyl)-2-oxa-4-azabicyclo[4.1.0]hept-3-en-5-yl)phenyl)-5-chloropicolinamide] | 6.58 | 3.40
NC1=N[C@@](CF)(c2cc(NC(=O)c3ccc(Cl)cn3)ccc2Cl)[C@@H]2C[C@@H]2O1 [Example 271] | 4.62 | < 3.40
NC1=N[C@@](CF)(c2cc(NC(=O)c3ccc(Cl)cn3)ccc2Cl)[C@@H]2CC2O1 (stereo partly drawn) [Example 276, N-(3-(((1R,S), (5S,R), (6R,S))-3-amino-5-(fluoromethyl)-2-oxa-4-azabicyclo[4.1.0]hept-3-en-5-yl)-4-chlorophenyl)-5-chloropicolinamide] | 6.86 | 3.04
C[C@@]1(c2nc(NC(=O)c3ccc(C#N)cn3)ccc2F)N=C(N)O[C@H]2C[C@H]21 [Example 325, N-(6-((1S,5R,6S)-3-amino-5-methyl-2-oxa-4-azabicyclo[4.1.0]hept-3-en-5-yl)-5-fluoropyridin-2-yl)-5-cyanopicolinamide] | < 4.40 | 2.89
C[C@@]1(c2cc(NC(=O)c3ccc(Cl)cn3)cnc2F)N=C(N)O[C@H]2C[C@H]21 [Example 335, N-(5-((1S,5R,6S)-3-amino-5-methyl-2-oxa-4-azabicyclo[4.1.0]hept-3-en-5-yl)-6-fluoropyridin-3-yl)-5-chloropicolinamide] | 4.85 | < 3.40
COc1cnc2c(Nc3ccc(F)c([C@@]4(C)N=C(N)O[C@H]5C[C@H]54)c3)nccc2c1 [Example 337, (1S,5S,6S)-5-(2-fluoro-5-((3-methoxy-1,7-naphthyridin-8-yl)amino)phenyl)-5-methyl-2-oxa-4-azabicyclo[4.1.0]hept-3-en-3-amine] | 5.48 | < 3.40
COc1cnc2c(Nc3ccc(F)c([C@]4(C)N=C(N)O[C@@H]5C[C@@H]54)c3)nccc2c1 [Example 338, (1R,5R,6R)-5-(2-fluoro-5-((3-methoxy-1,7-naphthyridin-8-yl)amino)phenyl)-5-methyl-2-oxa-4-azabicyclo[4.1.0]hept-3-en-3-amine] | < 4.40 | 4.25
COc1cnc2c(Nc3ccc(F)c([C@]4(C)N=C(N)O[C@H]5C[C@H]54)c3)nccc2c1 [Example 339] | 5.09 | < 3.40
N#Cc1cnc2c(Nc3ccc(Cl)c([C@]4(C(F)F)N=C(N)O[C@H]5C[C@H]54)c3)ncc(F)c2c1 [Example 349, 8-((3-((1(R,S),5(S,R),6(R,S))-3-amino-5-(difluoromethyl)-2-oxa-4-azabicyclo[4.1.0]hept-3-en-5-yl)-4-chlorophenyl)amino)-5-fluoro-1,7-naphthyridine-3-carbonitrile] | 7.08 | 4.05
